These results are taken from patent publication US12264156B2, “Compounds and pharmaceutical compositions thereof for the treatment of diseases” (GALAPAGOS NV, priority 2018, dated 2025).

What is called IC50 is the midpoint of a concentration-inhibition curve. A word on the EC50: it is the concentration that produces a half-maximal response.

The target in one assay is T1, SIK2 (Homo sapiens, UniProt Q9H0K1).
T1 construct: purchased ThermoFisher Scientific PV4792
Put plainly: ADP-Glo kinase assay, SIK2. In kind it is biochemical. The following applies: ADP-Glo SIK kinase assay. Summed up:
(§1)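 Wells with 1% DMSO or 10 μM staurosporine (final) define the control window. The kinase reaction with substrate and ATP runs 120 min at RT, followed by ADP-Glo detection: ATP depletion (40 min) and ADP-derived luminescence (30 min).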
(In general: ADP-Glo first removes unused ATP, then detects ADP through luciferase.)

The test system of assay [1] is LPS-induced TNFα in monocyte-derived macrophages (MdM). Put plainly: MdM assay: LPS-triggered TNFα (ELISA). Type of assay: cell-based, human. The following applies: Homo sapiens, Macrophage, 20 h, monocyte-derived macrophages, LPS 200 ng/mL, supernatant after 20 h; read-out: TNFα EC50. The essentials:
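Human monocyte-derived macrophages from CD14+ bead-selected buffy-coat PBMCs, used on day 10, pre-treated with compound for 1 h at 37 °C (0.2% DMSO), then stimulated with 200 ng/mL LPS. Supernatant taken after 20 h for TNFα sandwich ELISA (IL-10 at 2 h).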
Background: In an ELISA, binding on a coated surface is turned into a signal by an enzyme label.

The next assay has as its target T2, SIK3 (Homo sapiens, UniProt Q9Y2K2).
T2 construct: purchased SignalChem S12-11G-100
As to the kind of experiment: ADP-Glo kinase assay, SIK3. Type of assay: biochemical. The settings on record: ADP-Glo SIK kinase assay. The essentials: as §1

The target of another assay is T3, SIK1 (Homo sapiens, UniProt P57059).
T3 construct: purchased Carna Biosciences 02-131
As to the kind of experiment: ADP-Glo kinase assay, SIK1. The settings on record: ADP-Glo SIK kinase assay. Type of assay: biochemical. The essentials: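 Enzyme–substrate mix was started with ATP and incubated 120 min at RT. ADP formed was quantified by ADP-Glo: 40 min ATP depletion, then 30 min detection reagent converting ADP to ATP for luciferase luminescence, which rises with kinase activity. Controls: 1% DMSO and 10 μM staurosporine (final).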

T1 sequence (Q9H0K1 whole entry): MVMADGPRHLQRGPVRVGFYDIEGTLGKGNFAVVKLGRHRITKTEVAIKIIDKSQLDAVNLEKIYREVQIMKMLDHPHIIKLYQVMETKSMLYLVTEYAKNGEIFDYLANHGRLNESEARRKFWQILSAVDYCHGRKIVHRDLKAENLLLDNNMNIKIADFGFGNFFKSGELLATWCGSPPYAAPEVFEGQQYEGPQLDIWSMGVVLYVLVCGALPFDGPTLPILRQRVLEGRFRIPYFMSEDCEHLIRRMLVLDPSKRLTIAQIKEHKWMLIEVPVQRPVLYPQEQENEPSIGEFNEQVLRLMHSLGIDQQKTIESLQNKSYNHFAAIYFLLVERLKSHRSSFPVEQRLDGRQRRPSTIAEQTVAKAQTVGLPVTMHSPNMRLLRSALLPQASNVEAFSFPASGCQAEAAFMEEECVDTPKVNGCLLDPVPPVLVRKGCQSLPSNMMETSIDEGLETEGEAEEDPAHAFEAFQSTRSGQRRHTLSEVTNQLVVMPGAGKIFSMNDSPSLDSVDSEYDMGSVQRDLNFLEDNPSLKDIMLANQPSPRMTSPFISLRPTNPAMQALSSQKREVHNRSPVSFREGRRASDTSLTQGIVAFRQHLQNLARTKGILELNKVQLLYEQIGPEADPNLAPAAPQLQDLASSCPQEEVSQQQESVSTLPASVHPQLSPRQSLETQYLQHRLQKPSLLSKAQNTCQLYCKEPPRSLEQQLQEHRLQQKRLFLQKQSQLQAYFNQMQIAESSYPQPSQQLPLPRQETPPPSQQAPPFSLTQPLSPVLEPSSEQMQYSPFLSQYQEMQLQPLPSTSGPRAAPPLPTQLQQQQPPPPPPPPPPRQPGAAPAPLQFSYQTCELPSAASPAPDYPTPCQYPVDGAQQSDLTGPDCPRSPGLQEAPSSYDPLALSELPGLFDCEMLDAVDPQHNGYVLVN
T3 sequence (P57059 whole entry): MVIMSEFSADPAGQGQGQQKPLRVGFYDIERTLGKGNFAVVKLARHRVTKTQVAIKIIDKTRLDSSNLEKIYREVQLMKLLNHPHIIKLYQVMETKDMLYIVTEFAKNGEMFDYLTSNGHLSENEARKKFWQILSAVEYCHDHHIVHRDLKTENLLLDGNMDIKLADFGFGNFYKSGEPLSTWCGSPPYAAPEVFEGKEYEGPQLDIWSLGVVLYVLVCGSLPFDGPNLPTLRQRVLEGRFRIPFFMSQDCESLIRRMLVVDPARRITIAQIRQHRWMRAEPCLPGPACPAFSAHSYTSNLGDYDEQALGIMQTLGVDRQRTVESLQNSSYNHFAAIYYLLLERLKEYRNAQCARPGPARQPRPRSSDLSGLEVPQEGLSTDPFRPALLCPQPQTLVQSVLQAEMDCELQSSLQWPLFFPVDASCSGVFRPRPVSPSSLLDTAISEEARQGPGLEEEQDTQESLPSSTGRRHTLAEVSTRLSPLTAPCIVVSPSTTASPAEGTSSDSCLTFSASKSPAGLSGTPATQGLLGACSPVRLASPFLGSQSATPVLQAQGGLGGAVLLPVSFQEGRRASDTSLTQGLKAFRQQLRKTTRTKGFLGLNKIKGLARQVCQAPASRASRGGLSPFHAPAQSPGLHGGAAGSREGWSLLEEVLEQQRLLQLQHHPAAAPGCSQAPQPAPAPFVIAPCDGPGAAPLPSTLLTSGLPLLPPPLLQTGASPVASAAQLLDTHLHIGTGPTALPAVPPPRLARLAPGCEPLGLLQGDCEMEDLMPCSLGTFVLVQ
T2 sequence (Q9Y2K2 whole entry): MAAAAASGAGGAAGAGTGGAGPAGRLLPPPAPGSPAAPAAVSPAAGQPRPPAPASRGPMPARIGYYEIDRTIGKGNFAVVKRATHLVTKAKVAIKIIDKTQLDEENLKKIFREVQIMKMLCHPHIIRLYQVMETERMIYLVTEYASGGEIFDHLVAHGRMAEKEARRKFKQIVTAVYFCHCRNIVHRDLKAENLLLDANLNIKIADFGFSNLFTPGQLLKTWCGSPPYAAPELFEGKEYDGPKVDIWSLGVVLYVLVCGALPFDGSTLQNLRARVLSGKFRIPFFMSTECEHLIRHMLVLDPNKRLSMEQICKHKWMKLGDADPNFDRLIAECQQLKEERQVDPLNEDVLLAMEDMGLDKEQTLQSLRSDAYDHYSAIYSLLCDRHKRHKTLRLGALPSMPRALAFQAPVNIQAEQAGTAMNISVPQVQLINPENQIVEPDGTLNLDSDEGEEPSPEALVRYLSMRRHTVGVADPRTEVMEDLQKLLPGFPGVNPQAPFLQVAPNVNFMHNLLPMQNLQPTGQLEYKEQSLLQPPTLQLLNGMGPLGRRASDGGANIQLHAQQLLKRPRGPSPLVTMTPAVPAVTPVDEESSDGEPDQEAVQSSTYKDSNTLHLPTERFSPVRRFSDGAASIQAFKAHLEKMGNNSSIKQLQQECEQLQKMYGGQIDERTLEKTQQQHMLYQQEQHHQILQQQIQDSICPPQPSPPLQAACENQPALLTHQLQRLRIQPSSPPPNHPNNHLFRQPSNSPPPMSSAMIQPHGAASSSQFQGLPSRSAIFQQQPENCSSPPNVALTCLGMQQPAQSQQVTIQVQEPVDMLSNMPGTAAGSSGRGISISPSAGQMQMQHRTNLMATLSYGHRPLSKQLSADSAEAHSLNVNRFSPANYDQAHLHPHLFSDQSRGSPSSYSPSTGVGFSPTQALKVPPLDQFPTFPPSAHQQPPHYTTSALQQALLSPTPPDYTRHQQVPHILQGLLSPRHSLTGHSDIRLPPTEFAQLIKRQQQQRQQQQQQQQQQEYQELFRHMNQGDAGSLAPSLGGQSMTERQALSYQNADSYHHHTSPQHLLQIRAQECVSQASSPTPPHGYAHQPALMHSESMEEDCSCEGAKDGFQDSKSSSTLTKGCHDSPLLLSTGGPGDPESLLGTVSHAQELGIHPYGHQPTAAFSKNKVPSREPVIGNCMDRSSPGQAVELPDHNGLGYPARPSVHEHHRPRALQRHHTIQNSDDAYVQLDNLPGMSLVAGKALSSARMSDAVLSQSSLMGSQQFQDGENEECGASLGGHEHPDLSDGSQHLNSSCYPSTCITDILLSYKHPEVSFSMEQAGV

`COc1cc(-c2cnc3cc(OCCN4C[C@@H]5C[C@H]4CO5)ccn23)cc(OC(F)F)c1C(=O)NC1CC1` [compound 206, N-cyclopropyl-2-(difluoromethoxy)-6-methoxy-4-[7-[2-[(1S,4S)-2-oxa-5-azabicyclo[2.2.1]heptan-5-yl]ethoxy]imidazo[1,2-a]pyridin-3-yl]benzamide]: the IC50 on SIK2 was in the range of 0.01 to 10 nM; against SIK3 it was 0.01 to 10 nM; against SIK1, 10 to 100 nM. Moreover, the EC50 in assay [1] lay in the range of 100 to 1000 nM.

Consider `COc1cc(-c2cnc3cc(OCCN(C)C)ccn23)cc(OC(F)F)c1C(=O)NCC(F)(F)F` [compound 166, 2-(difluoromethoxy)-4-[7-[2-(dimethylamino)ethoxy]imidazo[1,2-a]pyridin-3-yl]-6-methoxy-N-(2,2,2-trifluoroethyl)benzamide], for which the values for the half-maximal inhibitory concentration (IC50) at SIK2, against SIK3 and on SIK1 were 0.01 to 10 nM, 0.01 to 10 nM and 100 to 500 nM, respectively. Further, the EC50 in assay [1] was in the range of 100 to 1000 nM.

With `COc1cc(-c2cnc3cc(OCCN4CCOC[C@H]4C)ccn23)cc(OC(F)F)c1C(=O)NC1CC1` [compound 234, N-cyclopropyl-2-(difluoromethoxy)-6-methoxy-4-[7-[2-[(3R)-3-methylmorpholin-4-yl]ethoxy]imidazo[1,2-a]pyridin-3-yl]benzamide], the IC50 at SIK2 lay within 0.01 to 10 nM; against SIK3 it was 0.01 to 10 nM; at SIK1 it was 10 to 100 nM. The EC50 in assay [1] fell in the range of 100 to 1000 nM.

For `COc1cc(-c2cnc3cc(OCCCN4CCCC(O)C4)ccn23)cc(OC(F)F)c1C(=O)NC1CC1` (centres unmarked) [compound 328, N-cyclopropyl-2-(difluoromethoxy)-4-[7-[3-(3-hydroxy-1-piperidyl)propoxy]imidazo [1,2-a]pyridin-3-yl]-6-methoxy-benzamide], the IC50 on SIK2 was in the range of 0.01 to 10 nM; against SIK3, 0.01 to 10 nM; against SIK1, 10 to 100 nM. For the same molecule, the EC50 in assay [1] lay within 0.1 to 100 nM.

For the molecule `CCNCCOc1ccn2c(-c3cc(OC)c(C(=O)NC4CC4)c(OC(F)F)c3)cnc2c1` [compound 37, N-cyclopropyl-2-(difluoromethoxy)-4-[7-[2-(ethylamino)ethoxy]imidazo[1,2-a]pyridin-3-yl]-6-methoxy-benzamide], the values for the IC50 against SIK2, at SIK3 and against SIK1 were 0.01 to 10 nM, 0.01 to 10 nM and 10 to 100 nM, respectively. Besides, the EC50 in assay [1] is 100 to 1000 nM.

On to `COc1cc(-c2cnc3cc(OC(C)(C)CO)ccn23)cc(OC(F)F)c1C(=O)NC1CC1` [Cpd 209, N-cyclopropyl-2-(difluoromethoxy)-4-[7-(2-hydroxy-1,1-dimethyl-ethoxy)imidazo[1,2-a]pyridin-3-yl]-6-methoxy-benzamide], for which the 50% inhibitory concentration (IC50) on SIK2 is over 500 nM; on SIK3, 10 to 100 nM; at SIK1 it was over 500 nM. For the same molecule, the EC50 in assay [1] is 1000 to 5000 nM.

For the molecule `COc1cc(-c2cnc3cc(OC[C@H]4COCCO4)ccn23)cc2c1C(=O)N(CC(F)F)CC2` [compound 219, 2-(2,2-difluoroethyl)-6-[7-[[(2R)-1,4-dioxan-2-yl]methoxy]imidazo[1,2-a]pyridin-3-yl]-8-methoxy-3,4-dihydroisoquinolin-1-one], the values for the half-maximal inhibitory concentration (IC50) against SIK2, against SIK3 and against SIK1 were 0.01 to 10 nM, 0.01 to 10 nM and 100 to 500 nM, respectively. For the same molecule, the EC50 in assay [1] was 1000 to 5000 nM.

`COc1cc(-c2cnc3cc(OCCN4CCOC[C@H]4C)ccn23)cc2c1C(=O)N(CC(F)(F)F)CC2` [compound 259, 8-methoxy-6-[7-[2-[(3R)-3-methylmorpholin-4-yl]ethoxy]imidazo[1,2-a]pyridin-3-yl]-2-(2,2,2-trifluoroethyl)-3,4-dihydroisoquinolin-1-one]: the results for the IC50 on SIK2, against SIK3 and against SIK1 were 10 to 100 nM, 10 to 100 nM and 100 to 500 nM, respectively. Further, the EC50 in assay [1] lay within 100 to 1000 nM.

With `COc1cc(-c2cnc3cc(OCCCN4CCC5(CC4)CNC(=O)O5)ccn23)cc(OC(F)F)c1C(=O)NC1CC1` [Cpd 324, N-cyclopropyl-2-(difluoromethoxy)-6-methoxy-4-[7-[3-(2-oxo-1-oxa-3,8-diazaspiro[4.5]decan-8-yl)propoxy]imidazo[1,2-a]pyridin-3-yl]benzamide], the IC50 at SIK2 lay in the range of 0.01 to 10 nM; at SIK3, 0.01 to 10 nM; at SIK1 it was 10 to 100 nM. Moreover, the EC50 in assay [1] was 100 to 1000 nM.

As to `COc1cc(-c2cnc3cc(OC[C@H]4CN(C)CCO4)ccn23)cc2c1C(=O)N(CC(F)(F)F)CC2` [compound 190, 8-methoxy-6-[7-[[(2R)-4-methylmorpholin-2-yl]methoxy]imidazo[1,2-a]pyridin-3-yl]-2-(2,2,2-trifluoroethyl)-3,4-dihydro isoquinolin-1-one], the IC50 on SIK2 lay within 0.01 to 10 nM; against SIK3, 0.01 to 10 nM; against SIK1, 100 to 500 nM. Also, in assay [1], the EC50 lay within 100 to 1000 nM.

As to `COc1cc(-c2cnc3cc(OCC4(F)CN(C)C4)ccn23)cc2c1C(=O)N(CC(F)(F)F)CC2` [compound 252, 6-[7-[(3-fluoro-1-methyl-azetidin-3-yl)methoxy]imidazo[1,2-a]pyridin-3-yl]-8-methoxy-2-(2,2,2-trifluoroethyl)-3,4-dihydro isoquinolin-1-one], the values for the IC50 at SIK2, at SIK3 and against SIK1 were 0.01 to 10 nM, 0.01 to 10 nM and 100 to 500 nM, respectively. For the same molecule, the EC50 in assay [1] was in the range of 100 to 1000 nM.

Turning to `COc1cc(-c2cnc3cc(OCCN4CCCC4)ccn23)cc2c1C(=O)N(CC(F)(F)F)CC2` [compound 123, 8-methoxy-6-[7-(2-pyrrolidin-1-ylethoxy)imidazo[1,2-a]pyridin-3-yl]-2-(2,2,2-trifluoroethyl)-3,4-dihydroisoquinolin-1-one], the IC50 was 0.01 to 10 nM against SIK2, 0.01 to 10 nM against SIK3 and over 500 nM on SIK1. Besides, in assay [1], the EC50 fell in the range of 100 to 1000 nM.

For the molecule `COc1cc(-c2cnc3cc(OCCCN4CCS(=O)(=O)CC4)ccn23)cc(OC(F)F)c1C(=O)NC1CC1` [Cpd 331, N-cyclopropyl-2-(difluoromethoxy)-4-[7-[3-(1,1-dioxo-1,4-thiazinan-4-yl)propoxy]imidazo[1,2-a]pyridin-3-yl]-6-methoxy-benzamide], the IC50 against SIK2 fell in the range of 0.01 to 10 nM; on SIK3 it was 0.01 to 10 nM; on SIK1, 10 to 100 nM. Also, the EC50 in assay [1] fell in the range of 100 to 1000 nM.

For the molecule `COc1cc(-c2cnc3cc(OC[C@H]4CCCCN4C)ccn23)cc(OC(F)F)c1C(=O)NC1CC1` [compound 111, N-cyclopropyl-2-(difluoromethoxy)-6-methoxy-4-[7-[[(2R)-1-methyl-2-piperidyl]methoxy]imidazo[1,2-a]pyridin-3-yl]benzamide], the 50% inhibitory concentration (IC50) against SIK2 lay within 0.01 to 10 nM; at SIK3 it was 0.01 to 10 nM; at SIK1, 100 to 500 nM. Besides, in assay [1], the concentration for a half-maximal effect (EC50) lay within 100 to 1000 nM.

For the molecule `COc1cc(-c2cnc3cc(OCCCN4CCC4)ccn23)cc(OC(F)F)c1C(=O)NC1CC1` [compound 274, 4-[7-[3-(azetidin-1-yl)propoxy]imidazo[1,2-a]pyridin-3-yl]-N-cyclopropyl-2-(difluoromethoxy)-6-methoxy-benzamide], the IC50 at SIK2, on SIK3 and at SIK1 was 0.01 to 10 nM each time. In assay [1], the EC50 lay in the range of 100 to 1000 nM.

Regarding `CCOC(=O)C1(F)CCN(CCCOc2ccn3c(-c4cc(OC)c(C(=O)NC5CC5)c(OC(F)F)c4)cnc3c2)CC1` [Cpd 363, ethyl 1-[3-[3-[4-(cyclopropylcarbamoyl)-3-(difluoromethoxy)-5-methoxy-phenyl]imidazo[1,2-a]pyridin-7-yl]oxypropyl]-4-fluoro-piperidine-4-carboxylate], the IC50 lay within 0.01 to 10 nM against SIK2, 0.01 to 10 nM on SIK3 and 10 to 100 nM against SIK1. Moreover, the EC50 in assay [1] is 0.1 to 100 nM.

As for `COc1cc(-c2cnc3cc(OCCN4CCN(C)CC4)ccn23)cc(OC(F)F)c1C(=O)NC1CC1` [compound 9, N-cyclopropyl-2-(difluoromethoxy)-6-methoxy-4-[7-[2-(4-methylpiperazin-1-yl)ethoxy]imidazo[1,2-a]pyridin-3-yl]benzamide], the IC50 against SIK2 fell in the range of 0.01 to 10 nM; at SIK3 it was 0.01 to 10 nM; against SIK1 it was 10 to 100 nM. Moreover, in assay [1], the half-maximal effective concentration (EC50) was 100 to 1000 nM.

As to `COc1cc(-c2cnc3cc(OCC4CN(C)C4)ccn23)cc2c1C(=O)N(CC(F)(F)F)CC2` [compound 39, 8-methoxy-6-[7-[(1-methylazetidin-3-yl)methoxy]imidazo[1,2-a]pyridin-3-yl]-2-(2,2,2-trifluoroethyl)-3,4-dihydro isoquinolin-1-one], the IC50 was in the range of 0.01 to 10 nM against SIK2, 0.01 to 10 nM at SIK3 and 100 to 500 nM against SIK1. Further, the EC50 in assay [1] fell in the range of 100 to 1000 nM.

Take `COc1cc(-c2cnc3cc(OCCN4CCCCC4)ccn23)cc(OC(F)F)c1C(=O)NC1CC1` [compound 10, N-cyclopropyl-2-(difluoromethoxy)-6-methoxy-4-[7-[2-(1-piperidyl)ethoxy]imidazo [1,2-a]pyridin-3-yl]benzamide]: the IC50 fell in the range of 0.01 to 10 nM on SIK2, 0.01 to 10 nM against SIK3 and 10 to 100 nM at SIK1. Also, in assay [1], the EC50 lay in the range of 0.1 to 100 nM.

As for `COc1cc(-c2cnc3cc(OCc4nncn4C)ccn23)cc(OC(F)F)c1C(=O)NC1CC1` [compound 227, N-cyclopropyl-2-(difluoromethoxy)-6-methoxy-4-[7-[(4-methyl-1,2,4-triazol-3-yl)methoxy]imidazo[1,2-a]pyridin-3-yl]benzamide], the IC50 at SIK2 lay within 0.01 to 10 nM; against SIK3 it was 0.01 to 10 nM; at SIK1 it was 100 to 500 nM. In addition, the EC50 in assay [1] is over 5000 nM.
